# In patent US11780845B2 (Relay Therapeutics, Inc., priority 2019, dated 2023):
# Key:
# FGFR2 = FGFR2 (Homo sapiens (Human), UniProt P21802); assay: Biochemical FGFR2 Caliper assay
# SNU-16 = assay: Cell SNU-16 assay; assay type: cell-based
# [1] = Homo sapiens, SNU-16, SNU-16 cells
# Sequence of FGFR2 (P21802 22-821): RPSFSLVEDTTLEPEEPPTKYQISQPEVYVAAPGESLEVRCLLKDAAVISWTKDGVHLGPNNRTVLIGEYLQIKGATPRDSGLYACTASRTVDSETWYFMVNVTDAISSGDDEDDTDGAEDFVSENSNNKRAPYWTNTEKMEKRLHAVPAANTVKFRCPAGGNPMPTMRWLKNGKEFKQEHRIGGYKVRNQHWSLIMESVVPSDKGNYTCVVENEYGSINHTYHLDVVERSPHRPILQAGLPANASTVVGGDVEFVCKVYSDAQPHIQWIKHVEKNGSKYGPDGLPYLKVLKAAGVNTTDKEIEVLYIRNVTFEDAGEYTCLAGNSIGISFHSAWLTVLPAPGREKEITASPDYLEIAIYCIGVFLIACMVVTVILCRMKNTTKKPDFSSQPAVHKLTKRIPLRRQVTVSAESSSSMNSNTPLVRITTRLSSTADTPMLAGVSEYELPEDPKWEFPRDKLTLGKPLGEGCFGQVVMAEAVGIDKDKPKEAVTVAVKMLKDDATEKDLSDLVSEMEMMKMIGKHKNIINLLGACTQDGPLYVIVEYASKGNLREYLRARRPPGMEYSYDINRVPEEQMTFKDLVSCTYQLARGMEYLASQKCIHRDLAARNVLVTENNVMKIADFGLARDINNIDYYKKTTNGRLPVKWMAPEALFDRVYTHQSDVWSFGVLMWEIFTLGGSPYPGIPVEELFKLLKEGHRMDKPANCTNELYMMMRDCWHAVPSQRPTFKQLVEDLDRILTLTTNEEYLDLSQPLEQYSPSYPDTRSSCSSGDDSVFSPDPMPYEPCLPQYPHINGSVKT
IC50 (FGFR2) [nM],IC50 (SNU-16; [1]) [nM],IC50 (SNU-16; SNU-16 cells) [nM],SMILES
1000 to 100000,250 to 1000,–,C=C(C)C(=O)Nc1nn(C)c(-c2c(-c3ccc(Oc4nccc(C)n4)cc3)c3c(N)ncnc3n2C)c1C [Example 1010]
< 100,≤ 100,–,C=C(C)C(=O)Nc1ccc(-c2c(C3=CC[C@@H](C(=O)N4CCCC45COC5)CC3)c3c(N)ncnc3n2C)c(F)c1 [Example 1011]
250 to 1000,100 to 250,–,C=C(C)C(=O)Nc1ccc(-c2c(C3=CC[C@H](C(=O)N4CCCC45COC5)CC3)c3c(N)ncnc3n2C)c(F)c1 [Example 1012]
< 100,≤ 100,–,Cc1ccnc(Oc2ccc(-c3c(-c4ccc(NC(=O)/C=C/CN(C)C)cc4)n(C)c4ncnc(N)c34)cc2F)n1 [Example 1013]
< 100,≤ 100,–,C=C(C)C(=O)Nc1ccc(-c2c(C3=CC[C@H](C(=O)N4CCCC4)OC3)c3c(N)ncnc3n2C)cc1 [Example 1014]
1000 to 100000,1000 to 100000,–,C=C(C)C(=O)Nc1ccc(-c2c(C3=CC[C@@H](C(=O)N4CCCC4)OC3)c3c(N)ncnc3n2C)cc1 [Example 1015]
1000 to 100000,1000 to 100000,–,C=C(C)C(=O)Nc1ccc(-c2c(C3=CC[C@@H](C(=O)N4CCCC4)CC3)c3c(N)ncnc3n2C)c(Cl)c1 [Example 1016]
< 100,≤ 100,–,C=C(C)C(=O)Nc1ccc(-c2c(C3=CC[C@H](C(=O)N4CCCC4)CC3)c3c(N)ncnc3n2C)c(Cl)c1 [Example 1017]
< 100,≤ 100,–,C=CC(=O)Nc1cccc(-c2c(C3=CC[C@H](C(=O)N4CCCC4)CC3)c3c(N)ncnc3n2C)c1 [Example 1018]
< 100,≤ 100,–,C=CC(=O)Nc1cccc(-c2c(C3=CC[C@@H](C(=O)N4CCCC4)CC3)c3c(N)ncnc3n2C)c1 [Example 1019]
100 to 250,≤ 100,–,C=CC(=O)Nc1ccc(-c2c(-c3ccc(C(=O)NCC4(F)COC4)cc3)c3c(N)ncnc3n2C)cc1 [Example 1020]
< 100,≤ 100,–,C=C(C)C(=O)Nc1cccc(-c2c(-c3ccc(C(=O)NCC4(F)COC4)cc3)c3c(N)ncnc3n2C)c1 [Example 1021]
250 to 1000,1000 to 100000,–,C=C(C)C(=O)Nc1ccc(-c2c(C3=CC[C@@H](C(=O)NCC4(F)COC4)CC3)c3c(N)ncnc3n2C)cc1 [Example 1022]
1000 to 100000,1000 to 100000,–,C=C(C)C(=O)Nc1ccc(-c2c(C3=CC[C@H](C(=O)NCC4(F)COC4)CC3)c3c(N)ncnc3n2C)cc1 [Example 1023]
250 to 1000,–,250 to 1000,C=C(C)C(=O)Nc1ccc(-c2c(C3=CC[C@](C)(C(=O)N4CCCC4)CC3)c3c(N)ncnc3n2C)cc1 [Example 1024]
1000 to 100000,–,1000 to 100000,C=C(C)C(=O)Nc1ccc(-c2c(C3=CC[C@@](C)(C(=O)N4CCCC4)CC3)c3c(N)ncnc3n2C)cc1 [Example 1025]
1000 to 100000,–,1000 to 100000,C=C(C)C(=O)Nc1ccc(-c2c(C3=CC[C@](C)(C(=O)N4CCCC4)CC3)c3c(N)ncnc3n2C)cc1 [Example 1026]
1000 to 100000,1000 to 100000,–,C=CC(=O)Nc1cccc(-c2c(-c3ccc4c(c3)CCCN4C)c3c(N)ncnc3n2C)c1 [Example 1027]
< 100,≤ 100,–,C=CC(=O)Nc1cccc(-c2c(-c3ccc(C(=O)NCC4(F)COC4)cc3)c3c(N)ncnc3n2C)c1 [Example 1030]
< 100,250 to 1000,–,C=C(C)C(=O)Nc1ccc(-c2c(C3=CC[C@@H](C(=O)N4CC[C@@H]5C[C@@H]54)CC3)c3c(N)ncnc3n2C)cc1 [Example 1037]
1000 to 100000,250 to 1000,–,C#Cc1ccc(-c2c(-c3ccc(C(=O)N4CCCC4)cc3)c3c(N)ncnc3n2C)cn1 [Example 1040]
100 to 250,≤ 100,–,Cc1ccnc(Oc2ccc(-c3c(-c4ccc(NC(=O)/C=C/CN(C)C)cc4)n(C)c4ncnc(N)c34)cc2)n1 [Example 1041]
< 100,≤ 100,–,C=C(CN(C)C)C(=O)Nc1ccc(-c2c(-c3ccc(C(=O)NCC4(F)COC4)cc3)c3c(N)ncnc3n2C)cc1 [Example 1044]
